Experimental data published in the NIST ThermoML archive (doi:10.1016/j.jct.2018.08.013).
Several values for one entry are separate records, joined by “and”; a condition that tells them apart may be missing. Identical values can stand only once.

How the values were obtained:
[1] = xn = mol fraction of the nth substance listed; details: 298 K; 100 kPa; Crystal of intercomponent compound 1; X-ray diffraction; x2 = 0.477
[2] = specific heat capacity at constant pressure; xn = mol fraction of the nth substance listed; details: 100 kPa, Crystal of intercomponent compound 1, x2 = 0.477

[Se] [selenium] + [In]
Details | mass density [kg/m3]
[1] | 5546

[2]
Details | specific heat capacity
10.11 K, relaxation calorimetry | 10.21 J/K/kg and 10.22 J/K/kg and 10.23 J/K/kg
12.12 K, relaxation calorimetry | 16.85 J/K/kg and 16.83 J/K/kg
12.14 K, relaxation calorimetry | 16.97 J/K/kg
14.13 K, relaxation calorimetry | 24.44 J/K/kg
14.15 K, relaxation calorimetry | 24.49 J/K/kg
16.15 K, relaxation calorimetry | 32.56 J/K/kg and 32.49 J/K/kg
16.16 K, relaxation calorimetry | 32.62 J/K/kg
18.17 K, relaxation calorimetry | 40.89 J/K/kg and 40.88 J/K/kg
18.18 K, relaxation calorimetry | 40.87 J/K/kg
20.18 K, relaxation calorimetry | 49.24 J/K/kg
20.19 K, relaxation calorimetry | 49.1 J/K/kg and 49.16 J/K/kg
22.2 K, relaxation calorimetry | 57.18 J/K/kg and 57.13 J/K/kg
22.21 K, relaxation calorimetry | 56.97 J/K/kg
24.22 K, relaxation calorimetry | 65.02 J/K/kg and 64.97 J/K/kg
24.23 K, relaxation calorimetry | 64.87 J/K/kg
26.24 K, relaxation calorimetry | 72.45 J/K/kg and 72.56 J/K/kg
28.25 K, relaxation calorimetry | 79.57 J/K/kg
30.27 K, relaxation calorimetry | 86.33 J/K/kg and 86.39 J/K/kg
32.78 K, relaxation calorimetry | 94.54 J/K/kg
32.79 K, relaxation calorimetry | 94.59 J/K/kg
35.31 K, relaxation calorimetry | 102.49 J/K/kg and 102.64 J/K/kg
37.81 K, relaxation calorimetry | 109.66 J/K/kg
37.82 K, relaxation calorimetry | 109.87 J/K/kg
40.34 K, relaxation calorimetry | 117.25 J/K/kg
40.35 K, relaxation calorimetry | 116.73 J/K/kg and 116.68 J/K/kg
42.86 K, relaxation calorimetry | 123.23 J/K/kg
42.87 K, relaxation calorimetry | 122.77 J/K/kg
45.38 K, relaxation calorimetry | 129.63 J/K/kg
45.39 K, relaxation calorimetry | 129.32 J/K/kg
45.4 K, relaxation calorimetry | 129.27 J/K/kg
47.9 K, relaxation calorimetry | 135.36 J/K/kg
47.91 K, relaxation calorimetry | 134.84 J/K/kg
50.41 K, relaxation calorimetry | 141.5 J/K/kg
50.42 K, relaxation calorimetry | 140.88 J/K/kg
50.44 K, relaxation calorimetry | 140.73 J/K/kg
52.93 K, relaxation calorimetry | 146.09 J/K/kg
52.95 K, relaxation calorimetry | 145.42 J/K/kg
55.43 K, relaxation calorimetry | 151.41 J/K/kg
55.46 K, relaxation calorimetry | 150.74 J/K/kg
55.48 K, relaxation calorimetry | 150.63 J/K/kg
57.97 K, relaxation calorimetry | 155.28 J/K/kg
57.99 K, relaxation calorimetry | 154.81 J/K/kg
60.46 K, relaxation calorimetry | 160.13 J/K/kg
60.49 K, relaxation calorimetry | 159.41 J/K/kg
60.52 K, relaxation calorimetry | 159.25 J/K/kg
63.01 K, relaxation calorimetry | 163.79 J/K/kg
63.04 K, relaxation calorimetry | 162.97 J/K/kg
65.49 K, relaxation calorimetry | 168.85 J/K/kg
65.53 K, relaxation calorimetry | 167.77 J/K/kg
65.57 K, relaxation calorimetry | 167.3 J/K/kg
68.05 K, relaxation calorimetry | 171.53 J/K/kg
68.08 K, relaxation calorimetry | 170.97 J/K/kg
70.52 K, relaxation calorimetry | 176.23 J/K/kg
70.56 K, relaxation calorimetry | 175.25 J/K/kg
70.63 K, relaxation calorimetry | 173.96 J/K/kg
73.05 K, relaxation calorimetry | 178.14 J/K/kg
73.09 K, relaxation calorimetry | 177.31 J/K/kg
75.56 K, relaxation calorimetry | 182.68 J/K/kg
75.6 K, relaxation calorimetry | 181.49 J/K/kg
75.67 K, relaxation calorimetry | 180.82 J/K/kg
78.13 K, relaxation calorimetry | 184.75 J/K/kg
78.16 K, relaxation calorimetry | 183.82 J/K/kg
80.57 K, relaxation calorimetry | 189.39 J/K/kg
80.65 K, relaxation calorimetry | 187.95 J/K/kg
80.71 K, relaxation calorimetry | 187.02 J/K/kg
83.17 K, relaxation calorimetry | 190.47 J/K/kg
83.2 K, relaxation calorimetry | 189.7 J/K/kg
85.61 K, relaxation calorimetry | 194.76 J/K/kg
85.69 K, relaxation calorimetry | 193.42 J/K/kg
85.74 K, relaxation calorimetry | 192.69 J/K/kg
88.19 K, relaxation calorimetry | 195.84 J/K/kg
88.24 K, relaxation calorimetry | 194.76 J/K/kg
90.63 K, relaxation calorimetry | 200.23 J/K/kg
90.71 K, relaxation calorimetry | 198.78 J/K/kg
90.78 K, relaxation calorimetry | 197.54 J/K/kg
93.18 K, relaxation calorimetry | 200.64 J/K/kg
93.24 K, relaxation calorimetry | 199.45 J/K/kg
95.65 K, relaxation calorimetry | 204.05 J/K/kg
95.74 K, relaxation calorimetry | 202.39 J/K/kg
95.83 K, relaxation calorimetry | 201.41 J/K/kg
98.2 K, relaxation calorimetry | 204.15 J/K/kg
98.3 K, relaxation calorimetry | 202.34 J/K/kg
100.79 K, relaxation calorimetry | 205.8 J/K/kg
100.83 K, relaxation calorimetry | 205.34 J/K/kg
100.91 K, relaxation calorimetry | 207.4 J/K/kg
101.79 K, relaxation calorimetry | 206.37 J/K/kg
101.88 K, relaxation calorimetry | 205.18 J/K/kg
105.84 K, relaxation calorimetry | 208.74 J/K/kg
105.86 K, relaxation calorimetry | 208.07 J/K/kg
109.83 K, relaxation calorimetry | 211.27 J/K/kg
109.93 K, relaxation calorimetry | 209.1 J/K/kg
113.88 K, relaxation calorimetry | 213.59 J/K/kg
113.93 K, relaxation calorimetry | 212.1 J/K/kg
117.9 K, relaxation calorimetry | 215.3 J/K/kg
117.98 K, relaxation calorimetry | 213.08 J/K/kg
121.94 K, relaxation calorimetry | 217.67 J/K/kg
121.97 K, relaxation calorimetry | 216.38 J/K/kg
125.98 K, relaxation calorimetry | 218.34 J/K/kg and 218.39 J/K/kg
130 K, relaxation calorimetry | 220.35 J/K/kg
130.01 K, relaxation calorimetry | 220.87 J/K/kg
133.92 K, relaxation calorimetry | 223.14 J/K/kg
134.04 K, relaxation calorimetry | 219.79 J/K/kg
138.04 K, relaxation calorimetry | 223.76 J/K/kg
138.07 K, relaxation calorimetry | 223.97 J/K/kg
141.97 K, relaxation calorimetry | 225.82 J/K/kg
142.1 K, relaxation calorimetry | 222.52 J/K/kg
146.07 K, relaxation calorimetry | 227.01 J/K/kg
146.14 K, relaxation calorimetry | 226.7 J/K/kg
150.02 K, relaxation calorimetry | 228.71 J/K/kg
150.14 K, relaxation calorimetry | 225.72 J/K/kg
154.13 K, relaxation calorimetry | 230.11 J/K/kg
154.16 K, relaxation calorimetry | 229.02 J/K/kg
162.19 K, relaxation calorimetry | 232.33 J/K/kg
162.21 K, relaxation calorimetry | 231.34 J/K/kg
170.26 K, relaxation calorimetry | 233.51 J/K/kg
170.28 K, relaxation calorimetry | 234.13 J/K/kg
178.32 K, relaxation calorimetry | 235.16 J/K/kg
178.34 K, relaxation calorimetry | 235.63 J/K/kg
186.37 K, relaxation calorimetry | 236.76 J/K/kg
186.4 K, relaxation calorimetry | 237.23 J/K/kg
194.4 K, relaxation calorimetry | 238 J/K/kg
194.45 K, relaxation calorimetry | 238.31 J/K/kg
202.42 K, relaxation calorimetry | 239.96 J/K/kg
202.5 K, relaxation calorimetry | 239.65 J/K/kg
210.44 K, relaxation calorimetry | 241.2 J/K/kg
210.53 K, relaxation calorimetry | 241.05 J/K/kg
218.46 K, relaxation calorimetry | 241.51 J/K/kg
218.55 K, relaxation calorimetry | 241.2 J/K/kg
226.5 K, relaxation calorimetry | 242.85 J/K/kg
226.59 K, relaxation calorimetry | 242.65 J/K/kg
234.52 K, relaxation calorimetry | 243.63 J/K/kg
234.63 K, relaxation calorimetry | 243.37 J/K/kg
242.56 K, relaxation calorimetry | 244.4 J/K/kg
242.67 K, relaxation calorimetry | 244.04 J/K/kg
250.6 K, relaxation calorimetry | 245.28 J/K/kg
250.71 K, relaxation calorimetry | 245.12 J/K/kg
255.57 K, relaxation calorimetry | 245.59 J/K/kg
255.58 K, relaxation calorimetry | 246.52 J/K/kg
258.63 K, relaxation calorimetry | 245.95 J/K/kg
258.74 K, relaxation calorimetry | 245.79 J/K/kg
264.04 K, relaxation calorimetry | 247.24 J/K/kg
264.08 K, relaxation calorimetry | 246.1 J/K/kg
265.74 K, Extra sensitive DSC | 248.37 J/K/kg
266.66 K, relaxation calorimetry | 246.62 J/K/kg
266.77 K, relaxation calorimetry | 246.57 J/K/kg
270 K, Extra sensitive DSC | 248.48 J/K/kg
272.24 K, relaxation calorimetry | 248.48 J/K/kg
272.34 K, relaxation calorimetry | 248.43 J/K/kg
274.69 K, relaxation calorimetry | 247.7 J/K/kg
274.81 K, relaxation calorimetry | 247.7 J/K/kg
275 K, Extra sensitive DSC | 248.79 J/K/kg
280 K, Extra sensitive DSC | 249.1 J/K/kg
280.72 K, relaxation calorimetry | 249.15 J/K/kg
280.84 K, relaxation calorimetry | 248.06 J/K/kg
282.72 K, relaxation calorimetry | 248.48 J/K/kg
282.83 K, relaxation calorimetry | 248.37 J/K/kg
285 K, Extra sensitive DSC | 249.51 J/K/kg
288.98 K, relaxation calorimetry | 249.72 J/K/kg
289.06 K, relaxation calorimetry | 248.53 J/K/kg
290 K, Extra sensitive DSC | 249.92 J/K/kg
290.72 K, relaxation calorimetry | 248.79 J/K/kg
290.85 K, relaxation calorimetry | 248.94 J/K/kg
294.72 K, relaxation calorimetry | 248.58 J/K/kg
294.84 K, relaxation calorimetry | 249.25 J/K/kg
295 K, Extra sensitive DSC | 250.03 J/K/kg
297.48 K, relaxation calorimetry | 249.25 J/K/kg
297.56 K, relaxation calorimetry | 248.74 J/K/kg
298.75 K, relaxation calorimetry | 248.74 J/K/kg
298.86 K, relaxation calorimetry | 250.59 J/K/kg
300 K, Extra sensitive DSC | 250.18 J/K/kg
303.85 K, relaxation calorimetry | 252.19 J/K/kg
303.86 K, relaxation calorimetry | 252.14 J/K/kg
305 K, Extra sensitive DSC | 250.39 J/K/kg
305.75 K, relaxation calorimetry | 251.52 J/K/kg
305.8 K, relaxation calorimetry | 251.11 J/K/kg
306.87 K, relaxation calorimetry | 252.97 J/K/kg and 252.76 J/K/kg
310 K, Extra sensitive DSC | 251.42 J/K/kg
315 K, Extra sensitive DSC | 252.09 J/K/kg
320 K, Extra sensitive DSC | 251.78 J/K/kg
325 K, Extra sensitive DSC | 252.3 J/K/kg
330 K, Extra sensitive DSC | 253.12 J/K/kg
335 K, Extra sensitive DSC | 254.52 J/K/kg
340 K, Extra sensitive DSC | 254.88 J/K/kg
345 K, Extra sensitive DSC | 255.7 J/K/kg
350 K, Extra sensitive DSC | 256.89 J/K/kg
355 K, Extra sensitive DSC | 257.82 J/K/kg
357.87 K, Extra sensitive DSC | 258.59 J/K/kg
